Source: ChEMBL document CHEMBL5653615 (J Biol Chem, 2013)

What was measured:
[1] = molecular target: T1, Mitogen-activated protein kinase kinase kinase 5 (Homo sapiens) (UniProt Q99683); assay: Inhibition of human ASK1 at 500 nM by HotSpot assay relative to control
T1 sequence (whole entry): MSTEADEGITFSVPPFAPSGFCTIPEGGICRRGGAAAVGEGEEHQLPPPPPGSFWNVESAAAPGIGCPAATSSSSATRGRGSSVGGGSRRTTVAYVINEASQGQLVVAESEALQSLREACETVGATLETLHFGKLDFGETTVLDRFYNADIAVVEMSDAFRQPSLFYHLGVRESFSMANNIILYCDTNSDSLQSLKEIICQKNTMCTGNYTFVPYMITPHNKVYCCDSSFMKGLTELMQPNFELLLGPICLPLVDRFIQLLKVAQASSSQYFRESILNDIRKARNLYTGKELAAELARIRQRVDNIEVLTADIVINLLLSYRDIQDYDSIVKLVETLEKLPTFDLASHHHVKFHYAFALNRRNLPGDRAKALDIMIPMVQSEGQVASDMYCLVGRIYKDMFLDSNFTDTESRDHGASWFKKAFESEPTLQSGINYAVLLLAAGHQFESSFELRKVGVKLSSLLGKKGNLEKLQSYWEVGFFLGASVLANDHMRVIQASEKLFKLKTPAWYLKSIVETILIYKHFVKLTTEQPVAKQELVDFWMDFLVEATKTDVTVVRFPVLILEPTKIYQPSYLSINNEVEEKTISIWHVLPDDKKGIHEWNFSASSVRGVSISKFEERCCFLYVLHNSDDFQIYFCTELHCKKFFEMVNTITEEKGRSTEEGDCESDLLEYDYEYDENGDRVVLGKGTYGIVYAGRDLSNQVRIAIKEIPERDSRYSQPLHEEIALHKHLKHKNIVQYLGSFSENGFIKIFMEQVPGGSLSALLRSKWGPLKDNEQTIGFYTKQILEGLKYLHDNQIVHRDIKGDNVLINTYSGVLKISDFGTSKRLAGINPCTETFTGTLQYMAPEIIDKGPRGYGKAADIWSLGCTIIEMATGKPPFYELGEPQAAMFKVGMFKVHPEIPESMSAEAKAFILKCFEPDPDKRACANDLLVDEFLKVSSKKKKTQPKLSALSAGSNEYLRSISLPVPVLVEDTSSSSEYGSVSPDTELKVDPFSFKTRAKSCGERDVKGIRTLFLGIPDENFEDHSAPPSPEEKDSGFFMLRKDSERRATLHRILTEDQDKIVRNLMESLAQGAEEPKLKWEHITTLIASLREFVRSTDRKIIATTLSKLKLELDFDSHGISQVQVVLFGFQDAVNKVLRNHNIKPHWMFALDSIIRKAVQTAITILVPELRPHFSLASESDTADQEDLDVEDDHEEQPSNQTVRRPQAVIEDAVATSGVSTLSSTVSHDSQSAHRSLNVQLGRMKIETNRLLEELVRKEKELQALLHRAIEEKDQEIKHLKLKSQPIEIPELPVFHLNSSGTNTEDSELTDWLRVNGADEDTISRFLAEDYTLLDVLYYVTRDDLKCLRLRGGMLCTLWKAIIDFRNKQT

[2] = molecular target: T2, Serine/threonine-protein kinase DCLK2 (Homo sapiens) (UniProt Q8N568); assay: Inhibition of human DCAMKL2 at 500 nM by HotSpot assay relative to control
T2 sequence (whole entry): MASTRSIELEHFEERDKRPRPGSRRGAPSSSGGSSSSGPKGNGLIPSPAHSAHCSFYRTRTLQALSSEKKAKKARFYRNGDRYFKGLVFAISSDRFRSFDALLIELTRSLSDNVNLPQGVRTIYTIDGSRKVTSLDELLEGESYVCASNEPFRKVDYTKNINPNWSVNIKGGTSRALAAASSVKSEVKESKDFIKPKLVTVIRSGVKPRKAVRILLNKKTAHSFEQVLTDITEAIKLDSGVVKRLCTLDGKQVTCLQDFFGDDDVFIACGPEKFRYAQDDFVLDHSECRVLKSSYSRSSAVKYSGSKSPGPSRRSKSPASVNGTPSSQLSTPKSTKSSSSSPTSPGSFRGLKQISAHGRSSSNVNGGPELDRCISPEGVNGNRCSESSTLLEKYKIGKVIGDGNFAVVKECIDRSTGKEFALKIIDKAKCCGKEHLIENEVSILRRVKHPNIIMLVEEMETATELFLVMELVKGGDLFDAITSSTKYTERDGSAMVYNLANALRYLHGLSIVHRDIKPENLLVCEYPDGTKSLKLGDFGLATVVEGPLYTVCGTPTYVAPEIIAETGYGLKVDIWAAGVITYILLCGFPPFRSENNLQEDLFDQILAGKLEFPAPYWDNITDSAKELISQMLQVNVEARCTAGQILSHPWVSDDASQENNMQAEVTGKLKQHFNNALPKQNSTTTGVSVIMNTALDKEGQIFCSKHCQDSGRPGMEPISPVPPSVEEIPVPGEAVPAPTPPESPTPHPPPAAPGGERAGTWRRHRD

[3] = molecular target: Fibroblast growth factor receptor 2 (Homo sapiens) (UniProt P21802); assay: Inhibition of human FGFR2 at 500 nM by HotSpot assay relative to control
[4] = molecular target: Homeodomain-interacting protein kinase 1 (Homo sapiens) (UniProt Q86Z02); assay: Inhibition of human HIPK1 at 500 nM by HotSpot assay relative to control
[5] = molecular target: Dual specificity mitogen-activated protein kinase kinase 2 (Homo sapiens) (UniProt P36507); assay: Inhibition of human MEK2 at 500 nM by HotSpot assay relative to control
[6] = molecular target: Proto-oncogene tyrosine-protein kinase ROS (Homo sapiens) (UniProt P08922); assay: Inhibition of human ROS1 at 500 nM by HotSpot assay relative to control
Sequence of Proto-oncogene tyrosine-protein kinase ROS (Homo sapiens) (P08922 whole entry): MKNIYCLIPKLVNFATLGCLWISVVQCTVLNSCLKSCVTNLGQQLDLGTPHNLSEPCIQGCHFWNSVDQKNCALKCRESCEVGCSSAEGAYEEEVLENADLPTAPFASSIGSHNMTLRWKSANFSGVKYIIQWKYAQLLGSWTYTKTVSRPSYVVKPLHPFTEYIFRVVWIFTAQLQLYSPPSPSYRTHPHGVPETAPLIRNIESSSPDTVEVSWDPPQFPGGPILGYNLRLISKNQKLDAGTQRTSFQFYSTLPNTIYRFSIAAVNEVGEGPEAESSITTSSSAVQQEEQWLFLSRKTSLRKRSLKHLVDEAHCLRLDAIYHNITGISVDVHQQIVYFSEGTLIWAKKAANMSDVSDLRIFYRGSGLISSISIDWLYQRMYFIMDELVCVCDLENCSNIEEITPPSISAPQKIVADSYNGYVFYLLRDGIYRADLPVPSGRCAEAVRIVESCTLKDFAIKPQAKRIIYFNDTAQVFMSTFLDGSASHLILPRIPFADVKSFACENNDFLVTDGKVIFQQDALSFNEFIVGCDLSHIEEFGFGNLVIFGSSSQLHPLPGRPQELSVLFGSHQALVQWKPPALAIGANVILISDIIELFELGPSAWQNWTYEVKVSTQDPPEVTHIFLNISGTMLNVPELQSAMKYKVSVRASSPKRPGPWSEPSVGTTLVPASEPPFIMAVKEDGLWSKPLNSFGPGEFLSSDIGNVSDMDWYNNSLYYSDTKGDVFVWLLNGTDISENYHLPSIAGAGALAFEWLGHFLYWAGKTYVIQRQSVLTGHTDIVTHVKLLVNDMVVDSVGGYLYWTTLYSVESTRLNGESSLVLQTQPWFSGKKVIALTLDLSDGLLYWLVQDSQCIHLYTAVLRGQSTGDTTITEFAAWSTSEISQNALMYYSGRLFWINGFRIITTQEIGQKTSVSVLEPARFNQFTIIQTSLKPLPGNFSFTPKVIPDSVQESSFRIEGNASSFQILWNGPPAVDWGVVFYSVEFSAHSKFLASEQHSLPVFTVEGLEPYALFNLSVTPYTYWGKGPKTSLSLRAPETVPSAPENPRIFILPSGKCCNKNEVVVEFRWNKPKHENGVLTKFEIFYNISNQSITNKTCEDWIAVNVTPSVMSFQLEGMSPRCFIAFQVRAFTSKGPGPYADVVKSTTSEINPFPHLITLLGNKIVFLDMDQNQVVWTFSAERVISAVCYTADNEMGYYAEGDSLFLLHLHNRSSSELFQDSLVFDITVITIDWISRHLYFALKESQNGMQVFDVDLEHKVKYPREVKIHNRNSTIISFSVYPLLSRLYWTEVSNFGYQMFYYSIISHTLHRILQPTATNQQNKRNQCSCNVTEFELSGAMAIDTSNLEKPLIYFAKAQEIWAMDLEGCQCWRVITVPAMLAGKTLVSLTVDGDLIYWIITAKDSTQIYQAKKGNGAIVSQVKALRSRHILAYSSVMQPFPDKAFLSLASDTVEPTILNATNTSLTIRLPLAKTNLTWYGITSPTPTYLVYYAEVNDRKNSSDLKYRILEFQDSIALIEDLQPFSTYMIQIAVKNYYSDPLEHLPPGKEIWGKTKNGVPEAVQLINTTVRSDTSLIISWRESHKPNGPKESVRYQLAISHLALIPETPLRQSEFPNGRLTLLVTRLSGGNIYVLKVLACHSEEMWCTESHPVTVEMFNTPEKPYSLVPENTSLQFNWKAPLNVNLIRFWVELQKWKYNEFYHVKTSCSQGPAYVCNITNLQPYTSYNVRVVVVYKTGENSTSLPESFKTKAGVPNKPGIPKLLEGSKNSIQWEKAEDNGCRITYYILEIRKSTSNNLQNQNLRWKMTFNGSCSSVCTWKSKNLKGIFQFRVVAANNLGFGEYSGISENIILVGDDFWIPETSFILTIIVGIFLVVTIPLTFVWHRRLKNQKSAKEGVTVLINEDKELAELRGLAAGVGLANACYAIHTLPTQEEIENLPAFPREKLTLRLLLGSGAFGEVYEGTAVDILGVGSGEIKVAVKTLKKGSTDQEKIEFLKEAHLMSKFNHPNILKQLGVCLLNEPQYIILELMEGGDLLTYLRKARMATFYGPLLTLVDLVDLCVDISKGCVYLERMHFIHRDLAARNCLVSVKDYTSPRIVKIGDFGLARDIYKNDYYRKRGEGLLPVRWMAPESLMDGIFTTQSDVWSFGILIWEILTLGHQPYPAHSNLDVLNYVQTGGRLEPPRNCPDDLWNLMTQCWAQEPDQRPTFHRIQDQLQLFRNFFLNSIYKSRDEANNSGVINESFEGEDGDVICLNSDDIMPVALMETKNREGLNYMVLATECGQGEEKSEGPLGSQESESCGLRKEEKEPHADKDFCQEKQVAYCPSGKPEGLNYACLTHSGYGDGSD

Sequence of Fibroblast growth factor receptor 2 (Homo sapiens) (P21802 22-821 limits assumed): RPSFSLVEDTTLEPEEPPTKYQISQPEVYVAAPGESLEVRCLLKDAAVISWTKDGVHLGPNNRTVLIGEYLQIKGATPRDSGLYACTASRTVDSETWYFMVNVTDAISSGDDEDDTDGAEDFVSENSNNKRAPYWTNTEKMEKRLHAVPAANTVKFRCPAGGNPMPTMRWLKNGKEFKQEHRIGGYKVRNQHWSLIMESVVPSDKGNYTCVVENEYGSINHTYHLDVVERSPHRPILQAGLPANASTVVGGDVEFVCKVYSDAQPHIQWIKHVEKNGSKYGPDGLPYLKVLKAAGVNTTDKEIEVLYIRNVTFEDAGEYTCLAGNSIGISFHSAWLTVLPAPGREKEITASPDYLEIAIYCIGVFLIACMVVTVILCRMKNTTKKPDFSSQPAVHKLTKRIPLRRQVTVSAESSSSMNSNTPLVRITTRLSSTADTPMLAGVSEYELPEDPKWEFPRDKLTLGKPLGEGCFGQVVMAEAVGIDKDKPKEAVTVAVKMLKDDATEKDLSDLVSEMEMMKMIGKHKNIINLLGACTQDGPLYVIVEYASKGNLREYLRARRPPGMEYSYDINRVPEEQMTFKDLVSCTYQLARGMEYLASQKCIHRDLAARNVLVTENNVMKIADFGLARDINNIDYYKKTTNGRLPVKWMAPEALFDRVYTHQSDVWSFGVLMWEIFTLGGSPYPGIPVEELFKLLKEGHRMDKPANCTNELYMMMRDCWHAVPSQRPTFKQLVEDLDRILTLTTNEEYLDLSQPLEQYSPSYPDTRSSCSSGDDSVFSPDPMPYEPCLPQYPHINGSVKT
Sequence of Dual specificity mitogen-activated protein kinase kinase 2 (Homo sapiens) (P36507 whole entry): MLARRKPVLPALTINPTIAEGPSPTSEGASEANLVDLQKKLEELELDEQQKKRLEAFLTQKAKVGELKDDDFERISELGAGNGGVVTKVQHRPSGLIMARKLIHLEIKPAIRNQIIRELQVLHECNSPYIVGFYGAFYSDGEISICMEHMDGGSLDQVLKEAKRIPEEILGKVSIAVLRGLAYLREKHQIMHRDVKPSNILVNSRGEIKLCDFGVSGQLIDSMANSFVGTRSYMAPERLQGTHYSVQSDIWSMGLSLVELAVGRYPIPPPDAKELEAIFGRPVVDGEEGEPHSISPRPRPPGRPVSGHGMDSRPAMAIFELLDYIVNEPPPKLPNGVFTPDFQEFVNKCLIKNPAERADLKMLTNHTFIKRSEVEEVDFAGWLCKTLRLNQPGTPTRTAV
Sequence of Homeodomain-interacting protein kinase 1 (Homo sapiens) (Q86Z02 whole entry, looked up): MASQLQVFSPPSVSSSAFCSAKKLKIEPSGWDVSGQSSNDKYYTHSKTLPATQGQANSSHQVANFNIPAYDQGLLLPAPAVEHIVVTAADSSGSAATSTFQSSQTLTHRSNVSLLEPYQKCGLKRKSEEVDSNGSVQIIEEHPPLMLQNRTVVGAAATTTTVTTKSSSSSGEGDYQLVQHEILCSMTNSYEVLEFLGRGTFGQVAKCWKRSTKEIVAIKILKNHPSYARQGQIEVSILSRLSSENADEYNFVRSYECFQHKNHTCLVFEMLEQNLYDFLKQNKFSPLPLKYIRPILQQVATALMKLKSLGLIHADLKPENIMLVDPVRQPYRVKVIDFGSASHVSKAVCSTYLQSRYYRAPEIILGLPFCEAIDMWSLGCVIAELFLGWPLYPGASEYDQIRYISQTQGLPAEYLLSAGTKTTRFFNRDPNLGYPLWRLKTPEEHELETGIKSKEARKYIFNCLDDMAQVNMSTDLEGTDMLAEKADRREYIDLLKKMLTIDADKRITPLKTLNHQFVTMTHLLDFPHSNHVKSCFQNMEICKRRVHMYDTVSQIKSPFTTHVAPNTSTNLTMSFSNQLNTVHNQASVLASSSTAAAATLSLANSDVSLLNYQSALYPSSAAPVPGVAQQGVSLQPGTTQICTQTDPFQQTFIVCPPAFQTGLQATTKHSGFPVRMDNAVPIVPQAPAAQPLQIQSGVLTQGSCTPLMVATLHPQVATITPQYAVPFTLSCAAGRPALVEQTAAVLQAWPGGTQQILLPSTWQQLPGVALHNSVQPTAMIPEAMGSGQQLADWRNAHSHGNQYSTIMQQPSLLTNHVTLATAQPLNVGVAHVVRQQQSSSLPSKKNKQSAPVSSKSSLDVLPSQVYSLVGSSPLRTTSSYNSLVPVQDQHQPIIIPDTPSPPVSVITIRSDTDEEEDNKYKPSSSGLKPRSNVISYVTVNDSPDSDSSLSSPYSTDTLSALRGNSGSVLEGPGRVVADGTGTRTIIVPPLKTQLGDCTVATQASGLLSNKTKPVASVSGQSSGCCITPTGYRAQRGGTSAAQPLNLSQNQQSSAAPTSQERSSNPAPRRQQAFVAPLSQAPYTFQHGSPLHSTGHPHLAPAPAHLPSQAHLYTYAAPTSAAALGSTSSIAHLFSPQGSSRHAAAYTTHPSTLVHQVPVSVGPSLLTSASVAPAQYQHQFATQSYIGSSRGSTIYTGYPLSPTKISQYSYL

SMILES	inhibition [1]	inhibition [2]	inhibition [3]	inhibition [4]	inhibition [5]	inhibition [6]
Nc1n[nH]c2nnc(-c3c(-c4ccccc4)nn4ccccc34)cc12	0.68%	-0.33%	-1.79%	-4.88%	0.62%	19.8%
Oc1n[nH]c2nnc(-c3c(-c4ccccc4)nn4ccccc34)cc12	0.05%	0.11%	-0.03%	-1.71%	1.44%	2.73%
